In publication PMC10966741, “Consensus Pharmacophore Strategy For Identifying Novel SARS-Cov-2 M^pro Inhibitors from Large Chemical Libraries” (Journal of Chemical Information and Modeling, 2024):

Each compound was assayed against SARS-CoV-2 M^pro (main protease; 3CLpro) (Severe acute respiratory syndrome coronavirus 2, UniProt P0DTC1) (assay: continuous FRET cleavage assay).
Assay type: biochemical
Cc1ccc(NC(=O)C2CC(=O)Nc3cc(F)ccc32)c(OCC(F)(F)F)c1 (stereo not drawn) [compound 1, 7-fluoro-N-[4-methyl-2-(2,2,2-trifluoroethoxy)phenyl]-2-oxo-1,2,3,4-tetrahydroquinoline-4-carboxamide] gave an IC50 of 86.6 µM.
For CCOc1cc(C)ccc1NC(=O)C1CC(=O)Nc2ccccc21 (stereo not drawn) [compound 4, N-(2-ethoxy-4-methylphenyl)-2-oxo-1,2,3,4-tetrahydroquinoline-4-carboxamide], the IC50 was 32.6 µM.
Work on O=C(Nc1ccccc1-c1nc2ccccc2[nH]1)c1cc(C2CC2)[nH]n1 [compound 5, N-[2-(1H-1,3-benzodiazol-2-yl)phenyl]-5-cyclopropyl-1H-pyrazole-3-carboxamide] yielded an IC50 of 70.5 µM.
